Test results reported in patent US20130324606A1, “Ester Derivatives of Bimatoprost Compositions and Methods” (ALLERGAN, INC., priority 2011, published 2013).

Key:
[1] = Dermal tolerability in rats; assay type: in vivo; details: female rats; for change in food consumption and body weight gain (in words): 3 mg/kg/day daily for 8 days; for Body Weight Gain (g) Mean ± SD / Food Consumption (g) Mean ± SD: dermal 3 mg/kg/day daily for 8 days, Formulation A
Method: Female rats were administered either vehicle or one of Cmpds IVa, IIIb, or IVb daily for 8 days. The administered dose was 3 mg/kg/day, at a concentration of 3 mg/mL. Observed data were body weight, viability, food consumption, and dermal observation (skin reaction grading), as known in the art. The vehicle was Formulation A. See Table 1 above.

C57Black/6J mice = assay: Piliation (hair regrowth) studies in mice; assay type: in vivo; details: for pharmacological efficacy relative to bimatoprost: mouse hair regrowth, vehicle Formulation A
Method: C57Black/6J, 7-week old female mice (n=10) were employed in piliation studies. Dorsal hair was shaved (area ˜2 cm×4 cm). Dosing of active agent was once per day (QD) by topical administration for 14 days. Observations were conducted for 42-days to determine onset of new hair growth and day of hair growth completion. Compounds were formulated as either a) 50% propylene glycol, 30% ethanol, 20% water, or b) the formulation of Formulation A described above. The experiments reported for FIGS. 4A-4B, 5A-5B, 6A-6B, 8A-8B, and 9A-9B were conducted using a vehicle with formulation of 50% propylene glycol, 30% ethanol, 20% water. The experiments reported for FIGS. 7A-7B were conducted using a vehicle of Formulation A described above.
For each of FIGS. 4A, 5A, 6A, 7A, 8A and 9A, the histograms depict the day of onset of hair growth. For each of FIGS. 4B, 5B, 6B, 7B, 8B and 9B, the histograms depict the day achieving full hair growth.

[2] = Partitioning in artificial sebum; assay type: physicochemical
Method: Compounds bimatoprost, Cmpd IVa, and Cmpd IIIb were added to aqueous solution (1 mL, 2-20 ug/mL), with and without 1-20 mg artificial sebum. Samples were shaken for 16 hr at 37° C. Samples were then centrifuged (8000 RPM) for 15 min at room temperature, prior to collection of the aqueous solution. Samples were analyzed for concentration of compound without artificial sebum (i.e., Co) and with artificial sebum (i.e., Ci) by mass spectroscopy. Artificial sebum and water partition coefficient (Ksebum) was expressed as the concentration of drug in 1 g of artificial sebum divided by the concentration of drug in 1 g of aqueous solution, and was calculated as Ksebum=(Co−Ci)Waqueous/(Ci×Wsebum) (Eqn. 1), where W represents weight.
Artificial sebum was prepared as follows: 15% (w/w) squalene, 15% spermaceti, 10% coconut oil, 1.5% oleic acid, 5% palmitic acid, 2.4% cholesterol oleate, 10% paraffin wax, 10% olive oil, 25% cottonseed oil, 5% palmitoleic acid, 1.2% cholesterol. The melting point of the semi-liquid was 37° C.

[3] = In vitro human skin penetration (Franz diffusion chamber); assay type: in vitro ADME; details: for skin penetration (cumulative amount in receptor solution) relative to bimatoprost / penetration flux relative to bimatoprost / Percentage Dose Applied, Receptor Chamber Solution, Prodrug / Percentage Dose Applied, Upper ⅓ Dermis, Prodrug: 0.03% in Formulation A; for skin penetration (cumulative amount in receptor solution) relative to bimatoprost: FIG. 13A; for penetration flux relative to bimatoprost: FIG. 13B; for Percentage Dose Applied, Receptor Chamber Solution, Prodrug: Franz chamber; for Percentage Dose Applied, Receptor Chamber Solution, Prodrug / Percentage Dose Applied, Upper ⅓ Dermis, Prodrug: dosed compound; for Percentage Dose Applied, Upper ⅓ Dermis, Prodrug: dermis at 48 hrs; for conversion to bimatoprost in the SC/Epi/Dermis layers: FIG. 15A; for amount of active agent in the upper third of the dermis relative to bimatoprost: FIG. 15B
From the text: Test material: Dermatomed ex vivo human cadaver posterior trunk skin on 1.0 cm^2 Franz diffusion chamber as known in the art. Test size: 3 skin donors (obtained from New York Firefighters Skin Bank), 3 replicates per donor per formulation. Test formulations: 0.03% active agent (Cmpd IVa, Cmpd IIIb, Cmpd IVb) in Formulation A; control formulation: bimatoprost at 0.03% in Formulation A. Dosing regimen: receptor fluid at 2, 4, 24, and 48 hrs; SC/epidermis and dermis at 48 hrs. Sample analysis: LC/MS-MS to detect bimatoprost and Cmpds IVa, IIIb and IVb.

[4] = microAmes mutagenesis screen; assay type: cell-based; details: with or without metabolic activation
From the text: Cmpds IVa, IIIb, and IVb were subjected to the microAmes screen, as known in the art.

[5] = Formulation and stability studies; assay type: physicochemical; details: variations of Formulation A, 0.03% active, pH 4, 5, 6 and 7; 25, 40 and 60° C.; zero time and 80-days
Method: Stability over time of compounds disclosed herein was determined in formulation as a function of temperature and pH. Variations of Formulation A described herein were employed wherein the target concentration of active agent was 0.03%, and the pH was varied at pH 4, 5, 6 and 7. Temperatures of 25° C., 40° C. and 60° C. were maintained during the experiment. Samples were evaluated at zero time and 80-days.
Cmpds IVa, IIIb, and IVb for evaluated for stability.
FIGS. 1A-1B, 2A-2B, and 3A-3B depict histograms of relative concentrations of test compounds (arbitrary scale) at zero time or 80-days. FIG. 1A depicts a histogram of the stability profile of Cmpd IVa as a function of pH and temperature. FIG. 1B depicts a histogram of the formation of bimatoprost as a function of pH and temperature after 80-days for Cmpd IVa. FIG. 2A depicts a histogram of the stability profile of Cmpd IVb as a function of pH and temperature. FIG. 2B depicts a histogram of the formation of bimatoprost as a function of pH and temperature after 80-days for Cmpd IVb. FIG. 3A depicts a histogram of the stability profile of Cmpd IIIb as a function of pH and temperature. FIG. 3B depicts a histogram of the formation of bimatoprost as a function of pH and temperature after 80-days for Cmpd IIIb.

[6] = In vitro human skin penetration (Franz diffusion chamber); assay type: in vitro ADME; details: FIGS. 14A-14C, 6, 24, 48 hr
mouse skin = assay: Pathology assessment of mouse hair regrowth model; assay type: in vivo, mice; details: histology, 0.03% active, vehicle control still in growth phase
From the text: Histological samples from test subjects employed in the studies described in Example 12 were obtained for pathology assessment.

[7] = Pharmacokinetic assessment of mouse hair regrowth model; assay type: in vivo; details: mice, 0.03% dermal daily ~60 uL, all measured time points, LC/MS-MS
Method: Female C57BL/6J mice (n=2) were assayed per time point per treatment group. Treatment groups: (1) vehicle; (2) 0.03% Cmpd IVa; (3) 0.03% Cmpd IIIb; (4) 0.03% Cmpd IVb; (5) 0.03% bimatoprost. Treatment dosing: dermal daily application of ˜60 uL test compound solution. Blood and skin pharmacokinetic time points were obtained at day 1 (1, 4, 8 and 24-hrs post-dose); day 2 (24-hrs post-dose); day 14 (24-hrs post-dose); and day 42 (28 days post day 14 dose). Bioanalysis employed LC/MS-MS.

[8] = system: reconstructed human epidermis (RHE); assay: In vitro dermal irritation screening in reconstructed human epidermis; assay type: cell-based; details: concentration 0.03%, Formulation A vehicle
Method: In vitro irritation screening assays were conducted for compounds described herein. Test system was the reconstructed human epidermis (RHE), as known in the art. Single dosing was employed, and endpoints were evaluated as a function of time up to 24-hrs. Endpoints were tissue viability and IL-1α release.
Test compounds included Cmpds IVa (0.03%), IIIb (0.03%), IVb (0.03%), bimatoprost (0.03%), minoxidil (5%, foam), and minoxidil (5%, solution). Administration of Cmpds IVa, IIIb, IVb and bimatoprost employed the vehicle of Formulation A. See Table 1 above. Administration of minoxidil employed minoxidil vehicle with formulation 20% H2O, 50% propylene glycol, and 30% ethanol.

[9] = system: human hair dermal papilla cells, HHDPC; assay: Cellular dielectric spectroscopy (CDS) in dermal papilla cells; assay type: cell-based; details: for EC50: cell impedance, tested range 10^−4 to 10^−13 mol/L
Method: Cellular dielectric spectroscopy (CDS) was conducted in an assay of dermal papilla cells (i.e., human hair dermal papilla cells, HHDPC) with bimatoprost and Cmpds IVc and IVb. As known in the art, CDS is a real-time, non-invasive, label-free, high-throughput, cell-based assay which measures electrical cell impedance. Without wishing to be bound by any theory, it is believed that GPCR activation induces changes in cell morphology, cell-cell interaction, and cell adherence which manifest as a change in cell impedance.

penetration flux relative to bimatoprost [3]	Percentage Dose Applied, Receptor Chamber Solution, Prodrug [3] [Percentage Dose Applied]	Percentage Dose Applied, Upper ⅓ Dermis, Prodrug [3] [Percentage Dose Applied]	conversion to bimatoprost in the SC/Epi/Dermis layers [3]	amount of active agent in the upper third of the dermis relative to bimatoprost [3]	stability in formulation [5]	conversion to bimatoprost in the receptor chamber solution [6]	level in the systemic circulation [7]	EC50 [9]	Compound	change in food consumption and body weight gain (in words) [1]	Body Weight Gain (g) Mean ± SD [1] [g]	Food Consumption (g) Mean ± SD [1] [g]	pharmacological efficacy relative to bimatoprost (C57Black/6J mice)	skin penetration (cumulative amount in receptor solution) relative to bimatoprost [3]	mutagenicity in microAmes screen [4]	hair cycle phase at day-42 (mouse skin)	potential for irritation of the human skin [8]	change in cell impedance [9]	other results
greater than that for bimatoprost	0.8	2.1	converted to bimatoprost	less than observed for bimatoprost	stable in formulation	observed to convert to bimatoprost	most undetectable		CCNC(=O)CCC/C=C\C[C@@H]1[C@@H](/C=C/[C@@H](O)CCc2ccccc2)[C@H](OC(=O)CC)C[C@@H]1O [Cmpd IIIb, 11-propionyl bimatoprost]	no significant change in food consumption or body weight gain	10.0 ± 6.1	22.8 ± 1.36	approximately equivalent efficacy	significantly greater than for bimatoprost	not mutagenic	returned to the resting phase	no indication of potential for irritation		dermal observation: signs of irritation ([1]; 3 mg/kg/day, days 2-4): minimal and transient signs of irritation; phase in which the majority of compound remains ([2]; artificial sebum / aqueous solution): remain in the aqueous phase; Ave. Ksebum (artificial sebum and water partition coefficient) ([2]; n = 4, 16 hr at 37° C.): 6.1
greater than that for bimatoprost	2.1	1.9	converted to bimatoprost	less than observed for bimatoprost	stable in formulation	observed to convert to bimatoprost	most undetectable	could not be determined	CCNC(=O)CCC/C=C\C[C@@H]1[C@@H](/C=C/[C@H](CCc2ccccc2)OC(=O)CC)[C@H](O)C[C@@H]1O [Cmpd IVb, 15-propionyl-bimatoprost]	decreases in both food consumption and body weight gain	0.3 ± 6.7	19.19 ± 1.32	approximately equivalent efficacy	significantly greater than for bimatoprost	not mutagenic	returned to the resting phase	no indication of potential for irritation	not observed to provide a change in cell impedance	days for hair growth to commence (day of onset of hair growth) (C57Black/6J mice; 0.03%, topical QD 14 days, vehicle 50% propylene glycol, 30% ethanol, 20% water, FIG. 6A): 16 days; days for full hair growth to be achieved (C57Black/6J mice; 0.03%, topical QD 14 days, vehicle 50% propylene glycol, 30% ethanol, 20% water, FIG. 6B): 32 days; activity in the time required to regain full hair growth (ranking) (C57Black/6J mice; among compounds tested at 0.03%): best activity
								could not be determined	CCCC(=O)O[C@H](/C=C/[C@@H]1[C@@H](C/C=C\CCCC(=O)NCC)[C@@H](O)C[C@H]1O)CCc1ccccc1 [Cmpd IVc, 15-butyryl bimatoprost]									not observed to provide a change in cell impedance	
